Measurements reported in US20260209212A1, “HETEROCYCLIC GLP-1 AGONISTS” (Gasherbrum Bio, Inc., priority 2022, published 2026).

Target: GLP-1 Receptor (Homo sapiens, UniProt P43220)
Assay: GLP-1R agonist cAMP stimulation assay
Format: cell-based
Settings: HEK293/GLP1R/CRE-LUC cells stably expressing the GLP-1 Receptor; cAMP dynamic 2 Kit (Cisbio); 30 min at 37° C.
Protocol: Activation of GLP-1 receptor is known to stimulate cyclic AMP (cAMP) production in cells which indicates primary coupling to the G as subunit of the G protein heterotrimeric complex.
To optimize functional activity directed toward G as coupling, a HEK293/CRE-Luc cell line developed by HDB stably expressing the GLP-1 Receptor was used. 200× concentration of compound working solutions were prepared (Agilent Technologies Bravo) with ½ log serial dilution in 384-well Echo LDV plate (Labcyte, Cat #LP-0200). 50 nL/well 200× concentration of compound working solutions were moved to 384-well white low volume plate (Greiner, Cat #784075) using Labcyte ECHO550.1×10^5 cells/mL HEK293/GLP1R/CRE-LUC (HD Biosciences) cell suspensions prepared with assay buffer [DPBS containing 0.5 mM IBMX (Sigma, Cat #I5879) and 0.1% BSA (GENVIEW, Cat #FA016-100 g)], 10 μL cell suspensions were added to each well of previous generated assay plate which already contains 50 nL compound at 200× concentration using ThermoFisher Multidrop Combi (1000 cells/well). Seal the plate and incubate at 37° C. with 5% CO2 for 30 min.
After incubation the cAMP assay signal was generated using cAMP dynamic 2 Kit (Cisbio). 5 μL cAMP-d2 working solution was added to each well, followed with 5 μL Anti-cAMP antibody-cryptate working solution added to each well using ThermoFisher Multidrop Combi. Incubate at room temperature for 1 hour protected from light. Read the fluorescence at 665 and 615 nm with Reader PerkinElmer EnVision.

Chain of GLP-1 Receptor (P43220 24-463): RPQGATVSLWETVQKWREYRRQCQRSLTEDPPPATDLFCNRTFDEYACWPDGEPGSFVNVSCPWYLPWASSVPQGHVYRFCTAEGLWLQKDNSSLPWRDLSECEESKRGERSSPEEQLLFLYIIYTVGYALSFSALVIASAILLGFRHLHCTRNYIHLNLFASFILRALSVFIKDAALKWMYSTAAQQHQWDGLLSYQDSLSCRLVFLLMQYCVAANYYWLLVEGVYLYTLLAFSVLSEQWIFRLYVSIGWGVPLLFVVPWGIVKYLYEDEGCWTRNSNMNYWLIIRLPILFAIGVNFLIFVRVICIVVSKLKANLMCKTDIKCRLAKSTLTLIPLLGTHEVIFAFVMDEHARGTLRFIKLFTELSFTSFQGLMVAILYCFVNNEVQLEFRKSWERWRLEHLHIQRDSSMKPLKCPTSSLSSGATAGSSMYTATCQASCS

| SMILES | EC50 [nM] |
| --- | --- |
| COc1cc(C(=O)O)cc2c1nc(CN1CCC(c3cccc4c3OC[C@@H](c3ccc(C#N)cc3)O4)CC1)n2[C@@H]1COC[C@@H]1OC [Compound 124] | 0.68 |
| O=C(O)c1ccc2nc(CN3CC=C(c4cccc5c4OC[C@@H](c4ccc6cnn(CC(F)F)c6c4)O5)CC3)n(C[C@@H]3CCO3)c2c1 [Compound 117] | 0.42 |
| O=C(O)c1ccc2nc(CN3CCC(c4cccc5c4OC[C@@H](c4ccc6cnn(CC(F)F)c6c4)O5)CC3)n(C[C@@H]3CCO3)c2c1 [Compound 102, 2-({4-[(2R)-2-[1-(2,2-difluoroethyl)-1H-indazol-6-yl]-2,3-dihydro-1,4-benzodioxin-5-yl]piperidin-1-yl}methyl)-1-{[(2S)-oxetan-2-yl]methyl}-1H-1,3-benzodiazole-6-carboxylic acid] | 0.065 |
| O=C(O)c1ccc2nc(CN3CCC(c4ccnc5c4OC[C@@H](c4ccc(Cl)cc4)O5)CC3)n(C[C@@H]3CCO3)c2c1 [Compound 130, 2-((4-((R)-3-(4-chlorophenyl)-2,3-dihydro-[1,4]dioxino[2,3-b]pyridin-8-yl)piperidin-1-yl)methyl)-1-(((S)-oxetan-2-yl)methyl)-1H-benzo[d]imidazole-6-carboxylic acid] | 0.16 |
| N#Cc1ccc([C@@H]2COc3c(cccc3C3CCN(Cc4nc5ccc(C(=O)O)cc5n4CC4(C#N)CC4)CC3)O2)cc1 [Compound 107] | 0.18 |
| N#Cc1ccc([C@@H]2COc3c(cccc3C3CCN(Cc4nc5ccc(C(=O)O)cc5n4CC4CCOC4)CC3)O2)cc1 (stereo partly drawn) [Compound 106, 2-({4-[(2R)-2-(4-cyanophenyl)-2,3-dihydro-1,4-benzodioxin-5-yl]piperidin-1-yl}methyl)-1-[(oxolan-3-yl)methyl]-1H-1,3-benzodiazole-6-carboxylic acid] | 1.6 |
| O=C(O)c1ccc2nc(CN3CCC4(c5cccc6c5OC[C@@H](c5ccc(Cl)cc5)O6)CC4C3)n(C[C@@H]3CCO3)c2c1 (stereo partly drawn) [Compound 127] | 500 |
| N#Cc1ccc([C@@H]2COc3c(cccc3C3CCN(Cc4nc5c(F)cc(C(=O)O)cc5n4C[C@@H]4CCO4)CC3)O2)cc1 [Compound 104, 2-({4-[(2R)-2-(4-cyanophenyl)-2,3-dihydro-1,4-benzodioxin-5-yl]piperidin-1-yl}methyl)-4-fluoro-1-{[(2S)-oxetan-2-yl]methyl}-1H-1,3-benzodiazole-6-carboxylic acid] | 0.027 |
| O=C(O)c1ccc2nc(CN3CC=C(c4cccc5c4OC[C@@H](c4ccc(Cl)cc4)O5)CC3)n(C[C@@H]3CCO3)c2c1 [Compound 125] | 0.77 |
| CC1=C(c2cccc3c2OC[C@@H](c2ccc(Cl)cc2)O3)CCN(Cc2nc3ccc(C(=O)O)cc3n2C[C@@H]2CCO2)C1 [Compound 126] | 1.6 |
| O=C(O)c1ccc2nc(CN3CCC(c4nccc5c4OC[C@@H](c4ccc(Cl)cc4)O5)CC3)n(C[C@@H]3CCO3)c2c1 [Compound 128] | 0.79 |
| O=C(O)c1cc(F)c2nc(CN3CCC(c4cccc5c4OC[C@@H](c4ccc(Cl)c6ccoc46)O5)CC3)n(C[C@@H]3CCO3)c2c1 [Compound 122, 2-({4-[(2R)-2-(4-chloro-1-benzofuran-7-yl)-2,3-dihydro-1,4-benzodioxin-5-yl]piperidin-1-yl}methyl)-4-fluoro-1-{[(2S)-oxetan-2-yl]methyl}-1H-1,3-benzodiazole-6-carboxylic acid] | 0.0012 |
| O=C(O)c1ccc2nc(CN3CCC(c4cccc5c4OC[C@@H](c4ccc(Cl)c6ccoc46)O5)CC3)n(C[C@@H]3CCO3)c2c1 [Compound 101] | 0.024 |
| O=C(O)c1ccc2nc(CN3CCC(c4c(F)ccc5c4OC[C@@H](c4ccc(Cl)cc4)O5)CC3)n(C[C@@H]3CCO3)c2c1 [Compound 129, 2-[[4-[(2R)-2-(4-chlorophenyl)-6-fluoro-2,3-dihydro-1,4-benzodioxin-5-yl]-1-piperidyl]methyl]-3-[[(2S)-oxetan-2-yl]methyl]benzimidazole-5-carboxylic acid] | 0.38 |
| O=C(O)c1cc(F)c2nc(CN3CCC(c4cccc5c4OC[C@@H](c4ccc(Cl)cc4)O5)CC3)n(C[C@@H]3CCO3)c2c1 [Compound 111, 2-({4-[(2R)-2-(4-chlorophenyl)-2,3-dihydro-1,4-benzodioxin-5-yl]piperidin-1-yl}methyl)-4-fluoro-1-{[(2S)-oxetan-2-yl]methyl}-1H-1,3-benzodiazole-6-carboxylic acid] | 0.017 |
| CO[C@H]1COC[C@H]1n1c(CN2CCC(c3cccc4c3OC[C@@H](c3ccc(Cl)cc3)O4)CC2)nc2c(F)cc(C(=O)O)cc21 [Compound 123] | 1.9 |
| C[C@H]1CC(c2cccc3c2OC[C@@H](c2ccc(C#N)cc2)O3)CCN1Cc1nc2c(F)cc(C(=O)O)cc2n1C[C@@H]1CCO1 (stereo partly drawn) [Compound 109] | 0.041 |
| N#Cc1ccc([C@@H]2COc3c(cccc3C3CCN(Cc4nc5ccc(C(=O)O)c(F)c5n4C[C@@H]4CCO4)CC3)O2)cc1 [Compound 103] | 0.057 |
| CO[C@@H]1COC[C@@H]1n1c(CN2CCC(c3cccc4c3OC[C@@H](c3ccc(C#N)cc3)O4)CC2)nc2ccc(C(=O)O)cc21 [Compound 114, 2-({4-[(2R)-2-(4-cyanophenyl)-2,3-dihydro-1,4-benzodioxin-5-yl]piperidin-1-yl}methyl)-1-[(3S,4S)-4-methoxyoxolan-3-yl]-1H-1,3-benzodiazole-6-carboxylic acid] | 0.024 |
| O=C(O)c1cc(F)c2nc(CN3CCC(c4cccc5c4OC[C@@H](c4ccc(C(F)(F)F)cc4)O5)CC3)n(C[C@@H]3CCO3)c2c1 [Compound 116] | 0.029 |
| N#CCC1(Cn2c(CN3CCC(c4cccc5c4OC[C@@H](c4ccc(C#N)cc4)O5)CC3)nc3c(F)cc(C(=O)O)cc32)CC1 [Compound 112] | 0.026 |
| O=C(O)c1cc(F)c2nc(CN3CCC(c4cccc5c4OC[C@@H](c4ccc(Cl)cc4)O5)CC3)n(C[C@@H]3CCO3)c2c1F [Compound 121] | 0.031 |
| COc1cc(C(=O)O)cc2c1nc(CN1CCC(c3cccc4c3OC[C@@H](c3ccc(Cl)c5ccoc35)O4)CC1)n2C[C@@H]1CCO1 [Compound 120, 2-({4-[(2R)-2-(4-chloro-1-benzofuran-7-yl)-2,3-dihydro-1,4-benzodioxin-5-yl]piperidin-1-yl}methyl)-4-methoxy-1-{[(2S)-oxetan-2-yl]methyl}-1H-1,3-benzodiazole-6-carboxylic acid] | 0.005 |
| COc1cc(C(=O)O)cc2c1nc(CN1CCC(c3cccc4c3OC[C@@H](c3ccc(Cl)cc3)O4)CC1)n2C[C@@H]1CCO1 [Compound 119, 2-({4-[(2R)-2-(4-chlorophenyl)-2,3-dihydro-1,4-benzodioxin-5-yl]piperidin-1-yl}methyl)-4-methoxy-1-{[(2S)-oxetan-2-yl]methyl}-1H-1,3-benzodiazole-6-carboxylic acid] | 0.011 |
| CCn1cncc1Cn1c(CN2CCC(c3cccc4c3OC[C@@H](c3ccc(C#N)cc3)O4)CC2)nc2ccc(C(=O)O)cc21 [Compound 105] | 0.012 |
| N#Cc1ccc([C@@H]2COc3c(cccc3C3CCN(Cc4nc5c(F)cc(C(=O)O)c(F)c5n4C[C@@H]4CCO4)CC3)O2)cc1 [Compound 108, 2-({4-[(2R)-2-(4-cyanophenyl)-2,3-dihydro-1,4-benzodioxin-5-yl]piperidin-1-yl}methyl)-4,7-difluoro-1-{[(2S)-oxetan-2-yl]methyl}-1H-1,3-benzodiazole-6-carboxylic acid] | 0.025 |
| COc1cc(C(=O)O)cc2c1nc(CN1CCC(c3cccc4c3OC[C@@H](c3ccc(C#N)cc3)O4)CC1)n2C[C@@H]1CCO1 [Compound 118, 2-({4-[(2R)-2-(4-cyanophenyl)-2,3-dihydro-1,4-benzodioxin-5-yl]piperidin-1-yl}methyl)-4-methoxy-1-{[(2S)-oxetan-2-yl]methyl}-1H-1,3-benzodiazole-6-carboxylic acid] | 0.011 |
| N#Cc1ccc([C@@H]2COc3c(cccc3C34CCN(Cc5nc6ccc(C(=O)O)cc6n5C[C@@H]5CCO5)CC3C4)O2)cc1 (stereo partly drawn) [Compound 110, 2-({6-[(2R)-2-(4-cyanophenyl)-2,3-dihydro-1,4-benzodioxin-5-yl]-3-azabicyclo[4.1.0]heptan-3-yl}methyl)-1-{[(2S)-oxetan-2-yl]methyl}-1H-1,3-benzodiazole-6-carboxylic acid] | 100 |
| O=C(O)c1cc(F)c2nc(CN3CCC(c4cccc5c4OC[C@@H](c4ccc(C(F)F)cc4)O5)CC3)n(C[C@@H]3CCO3)c2c1 [Compound 115] | 0.055 |
| CC(=O)N1C[C@H](F)C[C@@H]1Cn1c(CN2CCC(c3cccc4c3OC[C@@H](c3ccc(C#N)cc3)O4)CC2)nc2ccc(C(=O)O)cc21 [Compound 113] | 4 |
